In PubChem BioAssay AID330 (DTP/NCI, 2004):
“And” between values parts separate entries of the source, which are not always exact repeats. Equal entries are not always repeated. Toxic doses and inconclusive results are not listed. Rule for the calls: active = survival T/C of 150% or more; inactive = T/C below 125% in these data. Peptide text beside a SMILES is read from it.

System: P388 leukemia ip, CD2F1 mice, survival T/C
Assay: NCI In Vivo Anticancer Drug Screen. Data for tumor model P388 Leukemia (intraperitoneal) in CD2F1 (CDF1) mice
Settings: endpoint: median survival time, higher = longer survival
How it was run: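 Mice carrying the transplanted tumor received test compound or vehicle. Survival was recorded in each group, and the value is the treated-group measurement divided by that of the vehicle-treated control group.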

[1] = dose: 100.0 mg/kg/injection, schedule: Q01DX009 (ip), vehicle: Klucel (hydroxypropylcellulose) (HPC)
[2] = dose: 100.0 mg/kg/injection, schedule: Q01DX009 (ip), vehicle: saline with Tween-80
[3] = dose: 200.0 mg/kg/injection, schedule: Q01DX009 (ip), vehicle: Klucel (hydroxypropylcellulose) (HPC)
[4] = dose: 50.0 mg/kg/injection, schedule: Q01DX005 (ip), vehicle: saline with Tween-80
[5] = dose: 100.0 mg/kg/injection, schedule: Q01DX005 (ip), vehicle: saline with Tween-80
[6] = dose: 50.0 mg/kg/injection, schedule: Q01DX009 (ip), vehicle: saline
[7] = dose: 100.0 mg/kg/injection, schedule: Q01DX009 (ip), vehicle: saline
[8] = dose: 200.0 mg/kg/injection, schedule: Q01DX009 (ip), vehicle: saline
[9] = dose: 50.0 mg/kg/injection, schedule: Q01DX005 (ip), vehicle: Klucel (hydroxypropylcellulose) (HPC)
[10] = dose: 100.0 mg/kg/injection, schedule: Q01DX005 (ip), vehicle: Klucel (hydroxypropylcellulose) (HPC)
[11] = dose: 200.0 mg/kg/injection, schedule: Q01DX005 (ip), vehicle: Klucel (hydroxypropylcellulose) (HPC)
[12] = dose: 60.0 mg/kg/injection, schedule: Q01DX005 (ip), vehicle: saline
[13] = dose: 120.0 mg/kg/injection, schedule: Q01DX005 (ip), vehicle: saline
[14] = dose: 240.0 mg/kg/injection, schedule: Q01DX005 (ip), vehicle: saline
[15] = dose: 100.0 mg/kg/injection, schedule: Q04DX002 (ip), vehicle: saline with Tween-80
[16] = dose: 200.0 mg/kg/injection, schedule: Q04DX002 (ip), vehicle: saline with Tween-80
[17] = dose: 400.0 mg/kg/injection, schedule: Q04DX002 (ip), vehicle: saline with Tween-80

Measured: T/C

O=c1ccc2ccccc2o1
inactive: dose: 3.12 mg/kg/injection, schedule: Q01DX009 (ip), vehicle: saline with Tween-80 101 % of control and 108 % of control and 94 % of control | dose: 6.25 mg/kg/injection, schedule: Q01DX009 (ip), vehicle: saline with Tween-80 100 % of control and 101 % of control and 110 % of control | dose: 12.5 mg/kg/injection, schedule: Q01DX009 (ip), vehicle: saline with Tween-80 103 % of control and 110 % of control (2×) | dose: 25.0 mg/kg/injection, schedule: Q01DX009 (ip), vehicle: Klucel (hydroxypropylcellulose) (HPC) 100 % of control and 105 % of control | dose: 25.0 mg/kg/injection, schedule: Q01DX009 (ip), vehicle: saline with Tween-80 100 % of control and 110 % of control and 120 % of control | dose: 25.0 mg/kg/injection, schedule: Q04HX002 (ip), vehicle: water 100 % of control | dose: 50.0 mg/kg/injection, schedule: Q01DX009 (ip), vehicle: Klucel (hydroxypropylcellulose) (HPC) 105 % of control and 106 % of control and 107 % of control | dose: 50.0 mg/kg/injection, schedule: Q04HX002 (ip), vehicle: water 104 % of control | [1] 102 % of control and 105 % of control and 108 % of control | [2] 103 % of control and 114 % of control | dose: 100.0 mg/kg/injection, schedule: Q04HX002 (ip), vehicle: saline with Tween-80 91 % of control | dose: 100.0 mg/kg/injection, schedule: Q04HX002 (ip), vehicle: water 100 % of control | [3] 119 % of control and 94 % of control | dose: 200.0 mg/kg/injection, schedule: Q04HX002 (ip), vehicle: saline with Tween-80 59 % of control | dose: 200.0 mg/kg/injection, schedule: Q04HX002 (ip), vehicle: water 101 % of control | dose: 400.0 mg/kg/injection, schedule: Q04HX002 (ip), vehicle: saline with Tween-80 46 % of control

CCC1SC(=S)NC1=O (stereo not given)
inactive: [4] 92 % of control | [5] 92 % of control

Cc1c(Cl)cccc1NC(=O)/C(Cl)=C1/Sc2ccccc2NC1=O
inactive: dose: 60.0 mg/kg/injection, schedule: Q01DX005 (ip), vehicle: saline with Tween-80 96 % of control | dose: 120.0 mg/kg/injection, schedule: Q01DX005 (ip), vehicle: saline with Tween-80 93 % of control | dose: 240.0 mg/kg/injection, schedule: Q01DX005 (ip), vehicle: saline with Tween-80 91 % of control

CCN(CC)CC(=O)Nc1ccc2c(c1)C(=O)c1cc(NC(=O)CN(CC)CC)ccc1-2
inactive: dose: 50.0 mg/kg/injection, schedule: Q01DX009 (ip), vehicle: saline with Tween-80 86 % of control | [2] 94 % of control | dose: 200.0 mg/kg/injection, schedule: Q01DX009 (ip), vehicle: saline with Tween-80 96 % of control

O=C(Nc1ccc(Cl)cc1C(F)(F)F)Oc1ccc(-c2ccccc2)cc1Br
inactive: [6] 95 % of control | [7] 88 % of control | [8] 97 % of control

COC(=O)c1nnn(Cc2ccccc2)c1Cl
inactive: [9] 98 % of control | [10] 103 % of control and 104 % of control | [11] 102 % of control and 105 % of control

O=C1NC2CC1C(O)C2O (stereo not given)
inactive: [12] 101 % of control | [13] 101 % of control | [14] 100 % of control

CCC(=O)O[C@H]1CC[C@H]2[C@@H]3CC[C@H]4CCCC[C@]4(C)[C@H]3CC[C@]12C
inactive: [1] 90 % of control | [3] 95 % of control | dose: 400.0 mg/kg/injection, schedule: Q01DX009 (ip), vehicle: Klucel (hydroxypropylcellulose) (HPC) 105 % of control

CC(C)N1C(C)(C)C1(C)C#N (stereo not given)
inactive: [12] 100 % of control | [13] 104 % of control

COc1ccc2c(c1OC(C)=O)C1=CC(OC(C)=O)=CCC13CCN(C)C3C2 (stereo not given)
inactive: dose: 50.0 mg/kg/injection, schedule: Q01DX005 (ip), vehicle: saline 102 % of control | dose: 100.0 mg/kg/injection, schedule: Q01DX005 (ip), vehicle: saline 111 % of control | dose: 200.0 mg/kg/injection, schedule: Q01DX005 (ip), vehicle: saline 99 % of control

Cc1[nH]nc2c1NC(=O)OC2
inactive: [4] 104 % of control | [5] 104 % of control | dose: 200.0 mg/kg/injection, schedule: Q01DX005 (ip), vehicle: saline with Tween-80 106 % of control

O=C(O)c1cc([N+](=O)[O-])cc([N+](=O)[O-])c1Sc1ncccn1
inactive: [6] 96 % of control | [7] 100 % of control | [8] 101 % of control

COc1ccc(CC2c3cc4c(cc3CCN2C)OCO4)c(C=O)c1OC (stereo not given)
inactive: dose: 12.5 mg/kg/injection, schedule: Q01DX001 (ip), vehicle: saline + alcohol 93 % of control | dose: 25.0 mg/kg/injection, schedule: Q01DX001 (ip), vehicle: saline + alcohol 97 % of control | dose: 50.0 mg/kg/injection, schedule: Q01DX001 (ip), vehicle: saline + alcohol 99 % of control

Cn1c(N)c(C(=O)Nc2ccccc2)c(=O)n(C)c1=O
inactive: dose: 100.0 mg/kg/injection, schedule: Q01DX001 (ip), vehicle: Klucel (hydroxypropylcellulose) (HPC) 87 % of control | dose: 200.0 mg/kg/injection, schedule: Q01DX001 (ip), vehicle: Klucel (hydroxypropylcellulose) (HPC) 88 % of control

NC(Cc1cnc[nH]1)C(=O)NC(Cc1ccc(O)cc1)C(=O)O (stereo not drawn) (H-His-Tyr-OH; configuration not given here)
inactive: [12] 100 % of control | [13] 101 % of control | [14] 100 % of control

CC(=O)C[n+]1ccccc1Sc1ccccc1C
inactive: [4] 103 % of control

[Cl][Ni][Cl]
inactive: dose: 0.78 mg/kg/injection, schedule: Q01DX009 (ip), vehicle: saline 100 % of control | dose: 1.56 mg/kg/injection, schedule: Q01DX009 (ip), vehicle: saline 103 % of control | dose: 3.13 mg/kg/injection, schedule: Q01DX009 (ip), vehicle: saline 100 % of control | dose: 6.25 mg/kg/injection, schedule: Q01DX009 (ip), vehicle: saline 99 % of control | dose: 12.5 mg/kg/injection, schedule: Q01DX009 (ip), vehicle: saline 99 % of control and 101 % of control

O=C(O)c1cn2ccccc2c1[N+](=O)[O-]
inactive: [15] 94 % of control | [16] 92 % of control | [17] 96 % of control

CCCn1c(CC)nc2c(cnn2C)c1=O
inactive: [9] 101 % of control | [10] 101 % of control | [11] 101 % of control

NN1C(=O)C2C3C=CC(C4CC34)C2C1=O (stereo not given)
inactive: dose: 6.25 mg/kg/injection, schedule: Q01DX009 (ip), vehicle: Klucel (hydroxypropylcellulose) (HPC) 100 % of control | dose: 12.5 mg/kg/injection, schedule: Q01DX009 (ip), vehicle: Klucel (hydroxypropylcellulose) (HPC) 110 % of control

Cc1cc(C)cc([C@H](C)N=Cc2cc(Br)ccc2O)c1
inactive: [15] 100 % of control | [16] 100 % of control | [17] 108 % of control

COc1ccc2c(c1)CCC1C2=CC(=O)/C1=C\[O-].COc1ccc2c(c1)CCC1C2=CC(=O)/C1=C\[O-].[Cu+2] (stereo not given)
inactive: dose: 33.0 mg/kg/injection, schedule: Q04DX003 (ip), vehicle: saline with Tween-80 109 % of control | dose: 50.0 mg/kg/injection, schedule: Q04DX003 (ip), vehicle: saline with Tween-80 100 % of control and 90 % of control | dose: 75.0 mg/kg/injection, schedule: Q04DX003 (ip), vehicle: saline with Tween-80 100 % of control

O=C1C(Cl)=C(Nc2cccc3ccccc23)C(=O)C(Cl)=C1Nc1cccc2ccccc12
inactive: [9] 95 % of control | [10] 88 % of control | [11] 88 % of control

COC(=O)/C(C#N)=C/c1ccco1
inactive: [9] 98 % of control | [10] 98 % of control
